Measured values as given in ChEMBL document CHEMBL1201862, “PubChem BioAssay data set” (2004).
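Briefly, cells in 96-well plates were exposed to five compound concentrations for 48 h, and endpoints were estimated by linear interpolation. GI50: concentration for 50% inhibition of growth.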 The source made the active and inactive calls. Rule as the data show it: active = GI50 up to about 1.1 µM and inactive = higher.

What was measured:
Test in all cases: NCI anticancer screen, dose series, 48 h
[1] = system: 786-0
[2] = system: A498
[3] = system: A549
[4] = system: ACHN
[5] = system: BT-549
[6] = system: CAKI-1
[7] = system: CCRF-CEM
[8] = system: COLO 205
[9] = system: DU-145
[10] = system: EKVX
[11] = system: HCC 2998
[12] = system: HCT-116
[13] = system: HCT-15
[14] = system: HL-60
[15] = system: HOP-62
[16] = system: HT-29
[17] = system: Hs-578T
[18] = system: IGROV-1
[19] = system: K562
[20] = system: KM12
[21] = system: LOX IMVI
[22] = system: M14
[23] = system: MCF7
[24] = system: MDA-MB-231
[25] = system: MDA-MB-435
[26] = system: MDA-N
[27] = system: MOLT-4
[28] = system: Malme-3M
[29] = system: NCI-H226
[30] = system: NCI-H23
[31] = system: NCI-H460
[32] = system: NCI-H522
[33] = system: NCI/ADR-RES
[34] = system: OVCAR-3
[35] = system: OVCAR-4
[36] = system: OVCAR-5
[37] = system: OVCAR-8
[38] = system: PC-3
[39] = system: RPMI-8226
[40] = system: RXF 393
[41] = system: SF-268
[42] = system: SF-295
[43] = system: SF-539
[44] = system: SK-MEL-28
[45] = system: SK-MEL-2
[46] = system: SK-MEL-5
[47] = system: SK-OV-3
[48] = system: SN12C
[49] = system: SNB-19
[50] = system: SNB-75
[51] = system: SR
[52] = system: SW-620
[53] = system: T47D
[54] = system: TK-10
[55] = system: U-251
[56] = system: UACC-257
[57] = system: UACC-62
[58] = system: UO-31

Compound: COc1cc(/C=C/C(=O)CC(=O)/C=C/c2cc(OC)c(O)c(OC)c2)cc(OC)c1O
- GI50 [1]: 5.82 µM (inactive)
- GI50 [2]: 4.93 µM (inactive)
- GI50 [3]: 8.26 µM (inactive)
- GI50 [4]: 9.31 µM (inactive)
- GI50 [5]: 8.95 µM (inactive)
- GI50 [6]: 9.04 µM (inactive)
- GI50 [7]: > 25 µM (inactive)
- GI50 [8]: 10.1 µM (inactive)
- GI50 [9]: 7.83 µM (inactive)
- GI50 [10]: 12.6 µM (inactive)
- GI50 [11]: 5.37 µM (inactive)
- GI50 [12]: 5.12 µM (inactive)
- GI50 [13]: > 25 µM
- GI50 [14]: 16.3 µM (inactive)
- GI50 [15]: 11.7 µM (inactive)
- GI50 [16]: 7.76 µM (inactive)
- GI50 [17]: 7.93 µM (inactive)
- GI50 [18]: 5.35 µM (inactive)
- GI50 [19]: 8.69 µM (inactive)
- GI50 [20]: 6.15 µM (inactive)
- GI50 [21]: 7.82 µM (inactive)
- GI50 [22]: 8.61 µM (inactive)
- GI50 [23]: 14.9 µM (inactive)
- GI50 [24]: 13.8 µM (inactive)
- GI50 [25]: 6.17 µM (inactive)
- GI50 [26]: 4.74 µM (inactive)
- GI50 [27]: 6.84 µM (inactive)
- GI50 [28]: 9.16 µM (inactive)
- GI50 [29]: 10.2 µM (inactive)
- GI50 [30]: 10.3 µM (inactive)
- GI50 [31]: 22.8 µM (inactive)
- GI50 [32]: 5.81 µM (inactive)
- GI50 [33]: > 25 µM (inactive)
- GI50 [34]: 6.85 µM (inactive)
- GI50 [35]: 23.7 µM (inactive)
- GI50 [36]: 10.3 µM (inactive)
- GI50 [37]: 10.4 µM (inactive)
- GI50 [38]: 10.4 µM (inactive)
- GI50 [39]: 9.86 µM (inactive)
- GI50 [40]: 3.33 µM (inactive)
- GI50 [41]: 5.37 µM (inactive)
- GI50 [42]: 9.91 µM (inactive)
- GI50 [43]: 8.77 µM (inactive)
- GI50 [44]: 5.71 µM (inactive)
- GI50 [45]: 7.57 µM (inactive)
- GI50 [46]: 8.63 µM (inactive)
- GI50 [47]: 7.94 µM (inactive)
- GI50 [48]: 6.68 µM (inactive)
- GI50 [49]: 7.74 µM (inactive)
- GI50 [50]: 3.01 µM (inactive)
- GI50 [51]: 5.53 µM (inactive)
- GI50 [52]: > 25 µM (inactive)
- GI50 [53]: 6.5 µM (inactive)
- GI50 [54]: 20.2 µM (inactive)
- GI50 [55]: 8.11 µM (inactive)
- GI50 [56]: 8.34 µM (inactive)
- GI50 [57]: 4.22 µM (inactive)
- GI50 [58]: > 25 µM (inactive)
